Results: patent publication US7767796B2, “N4 chelator conjugates” (GE Healthcare Limited, priority 2004, dated 2010)

Legend:
[1] = Measurement of lipophilicity (LogP): octanol-water partition coefficient of the 99mTc complexes; assay type: physicochemical; settings: for Log P (octanol/50 mM phosphate buffer): 99mTc complex of the compound, 1-octanol / 50 mM phosphate buffer pH 7.4, room temperature; for Log P: 99mTc complex, repeated in the biodistribution table
Protocol: The tube was vortexed at room temperature for 1 min and then was centrifuged at high speed for 60 min. 0.1 ml samples of both phases were pipetted into other test tubes with adequate care to avoid cross contamination between the phases, and were counted in a Wallac Wizzard gamma-counter. The measurement was repeated three times.
The partition coefficient, P, was calculated as follows: P=(cpm in octanol−(cpm background)/( (cpm in water−(cpm background).
Usually the final partition coefficient value was expressed as log P.

[2] = Biodistribution of the 99mTc complexes in normal male Wistar rats; assay type: in vivo; settings: 99mTc complex, rat; for Clearance (% ID) HBS 120 min / Blood 120 min / Heart 120 min / Liver 120 min / Lung 120 min / Muscle 120 min / Clearance (% ID) Urine (K, B, U) 120 min: 120 min p.i.; for Blood 5 min: 5 min p.i.; for Heart/blood / Heart/liver / Heart/lung / Heart/muscle: ratio of uptake, 120 min values
Protocol: The ^99mTc complexes of Compounds 4, 5 and 7 were prepared as described in Example 8. […] Animals were anaesthetised with Halothane (6% in oxygen), injected with 0.1 ml (500 MBq/ml) Test Item, sacrificed, dissected and the samples assayed for radioactivity.

Row | Log P (octanol/50 mM phosphate buffer) [1] | Log P [1] | Clearance (% ID) HBS 120 min [2] | Blood 5 min [2] | Blood 120 min [2] | Heart 120 min [2] | Liver 120 min [2] | Lung 120 min [2] | Muscle 120 min [2] | Heart/blood [2] | Heart/liver [2] | Heart/lung [2] | Heart/muscle [2] | Clearance (% ID) Urine (K, B, U) 120 min [2] | Structure (SMILES)
1 | +0.6 | 0.6 | 74.65 % ID | 3.26 % ID/G | 0.91 % ID/G | 0.44 % ID/G | 6.52 % ID/G | 1.84 % ID/G | 0.34 % ID/G | 0.49 | 0.07 | 0.24 | 1.3 | 21.13 % ID | CCCCc1nc(Cl)c(CNC(=O)C(CC(C)C)NC(=O)CC(CNCCN)CNCCN)n1Cc1ccc(-c2ccccc2-c2nn[nH]n2)cc1 (centres unmarked) (99mTc complex, metal not drawn) [Compound 4]
2 | −0.1 | −0.1 | 54.21 % ID | 1.5 % ID/G | 0.26 % ID/G | 0.13 % ID/G | 3.53 % ID/G | 0.6 % ID/G | 0.9 % ID/G | 0.5 | 0.04 | 0.21 | 1.44 | 14.45 % ID | CCCCc1nc(Cl)c(CNC(=O)C(CC(C)C)NC(=O)COCC(=O)NCCOCCOCCOCCNC(=O)CC(CNCCN)CNCCN)n1Cc1ccc(-c2ccccc2-c2nn[nH]n2)cc1 (centres unmarked) (99mTc complex, metal not drawn) [Compound 5]
3 | <−2 | <−2 | 19.63 % ID | 0.84 % ID/G | 0.05 % ID/G | 0.1 % ID/G | 1.55 % ID/G | 0.4 % ID/G | 0.1 % ID/G | 2 | 0.06 | 0.25 | 1 | 64.26 % ID | CC[C@H](C)[C@H](NC(=O)[C@@H]1CCCN1C(=O)[C@H](Cc1cnc[nH]1)NC(=O)[C@@H](NC(=O)[C@H](Cc1ccc(O)cc1)NC(=O)[C@@H](NC(=O)[C@H](CCCNC(=N)N)NC(=O)NCCCCCCC(CNCCN)CNCCN)C(C)C)[C@@H](C)CC)C(=O)O (99mTc complex, metal not drawn) [Compound 7]

Row | Structure (SMILES) | Log P (octanol/50 mM phosphate buffer) [1] | Log P [1] | Clearance (% ID) HBS 120 min [2] | Blood 5 min [2] | Blood 120 min [2] | Heart 120 min [2] | Liver 120 min [2] | Lung 120 min [2] | Muscle 120 min [2] | Heart/blood [2] | Heart/liver [2] | Heart/lung [2] | Heart/muscle [2] | Clearance (% ID) Urine (K, B, U) 120 min [2]
4 | NCCNCC(CNCCN)CC(=O)NCc1ccccc1 [Compound 3] | <−2 |  |  |  |  |  |  |  |  |  |  |  |  | 
5 | NCCNCC(CCCCCCNC(=O)c1ccccc1)CNCCN [Compound 6] | −1.8 |  |  |  |  |  |  |  |  |  |  |  |  | 
